This note sets out measurements from EP1362858A1, “Pyrrolopyrimidinone derivates, process of preparation and use” (SK Chemicals Co., Ltd., priority 2002, dated 2003).

As a reminder, the IC50 is the midpoint of a concentration-inhibition curve.

One test has as its target rabbit platelet PDE V (Oryctolagus cuniculus, UniProt G1SX67). In words: PDE V inhibition, PDE SPA assay kit with [3H]-cGMP. In kind it is biochemical.
Conditions: not given
The procedure:
The rabbit platelet PDE V was prepared using the method described by Hidaka et al. (Biochim. Biophys. Acta., 429: 485 - 497, 1976) with minor modification. The plateletrich plasma (PRP) was prepared by centrifugation of freshly obtained heparinized whole blood at 360 g. Platelets were isolated from the PRP by centrifugation at 1,200 g. Platelet homogenates were prepared in the homogenization buffer (50 mM Tris-HCl buffer containing 1 mM MgCl2, pH 7.4) by sonication for 30 s per 1 mL. The homogenized solutions were then centrifuged at 40,000 × g for 2 h at 4 °C. The supernatant was loaded on the DEAE-cellulose column (20 mL bed volume, Sigma) pre-equilibrated with equilibration buffer (50 mM Tris-acetate containing 3.75 mM 2-mercaptoethanol, pH 6.0). The column was then washed with 60 mL of equilibration buffer. The PDE isozymes were eluted using a continuous gradient of 0 to 600 mM sodium acetate in the equilibration buffer (60 mL total volume). The 1.0 mL fractions were collected. A flow rate of 60 mL/h was used throughout the ion-exchange chromatography procedure. PDE activities on cAMP and cGMP were characterized as described below. The characterized fractions were pooled and stored at -80 °C until the inhibition studies.
The cyclic nucleotide PDE V activity was determined using PDE SPA assay kit (Amersham Pharmacia biotech, UK). Each reaction mixture (100 µL total volume) consisted of the column elute containing PDE V (10 µL), [^3H]-cGMP (5 µCi/mL), bovine serum albumin (0. 5 mg/mL), and MgCl2 (5 mM) in Tris-HCl buffer (15 mM, pH 7. 5). The reactions were initiated by the addition of PDE V and the samples were incubated at 30 °C for 30 min, after which the reaction was stopped by the addition of 50 µL of SPA beads. The reaction tube was then settled for 20 min and was counted on the scintillation counter (Tri-carb 1500, Packard, USA). For the inhibition study of PDE V activity, the test compounds were dissolved in dimethyl sulfoxide (DMSO) and was diluted with distilled water. The final concentration of DMSO was less than 0. 2% (v/v).
Molecule `CCCOc1ccc(S(=O)(=O)N2CCN(CCOC(=O)Cc3ccccc3)CC2)cc1-c1nc2c(CCC)cn(CC)c2c(=O)[nH]1` [Example 24, 5-Ethyl-2-{5-[4-(2-phenylacetoxyethyl)piperazin-1-ylsulfonyl]-2-n-propoxyphenyl}-7-n-propyl-3,5-dihydro-4H-pyrrolo[3,2-d]pyrimidin-4-one] had a half-maximal inhibitory concentration (IC50) of 8.68 nM.

The test is the same for the next values; noted with them: in vitro inhibition of cGMP PDE V; 30 °C, 30 min; read-out: IC50.
On to `CCCOc1ccc(S(=O)(=O)N2CCN(CCOC(C)=O)CC2)cc1-c1nc2c(CCC)cn(CC)c2c(=O)[nH]1` [Example 7, 2-{5-[4-(2-Acetoxyethyl)piperazin-1-ylsulfonyl]-2-n-propoxyphenyl}-5-ethyl-7-n-propyl-3,5-dihydro-4H-pyrrolo[3,2-d]pyrimidin-4-one], for which the IC50 came to 2.84 nM.

Consider `CCCOc1ccc(S(=O)(=O)N2CCN(CCOC(=O)CC)CC2)cc1-c1nc2c(CCC)cn(CC)c2c(=O)[nH]1` [Example 10, 5-Ethyl-2-{5-[4-(2-propionyloxyethyl)piperazin-1-ylsulfonyl]-2-n-propoxyphenyl}-7-n-propyl-3,5-dihydro-4H-pyrrolo[3,2-d]pyrimidin-4-one], for which the IC50 turned out to be 5.73 nM.

As to `CCCOc1ccc(S(=O)(=O)N2CCN(CCOC(=O)CCC)CC2)cc1-c1nc2c(CCC)cn(CC)c2c(=O)[nH]1` [Example 12, 2-{5-[4-(2-Butyryloxyethyl)piperazin-1-ylsulfonyl]-2-n-propoxyphenyl}-5-ethyl-7-n-propyl-3,5-dihydro-4H-pyrrolo[3,2-d]pyrimidin-4-one], the IC50 amounted to 8.87 nM.

`CCCOc1ccc(S(=O)(=O)N2CCN(CCOC(=O)C(C)C)CC2)cc1-c1nc2c(CCC)cn(CC)c2c(=O)[nH]1` [Example 14, 5-Ethyl-2-{5-[4-(2-isobutyryloxyethyl)piperazin-1-ylsulfonyl]-2-n-propoxyphenyl}-7-n-propyl-3,5-dihydro-4H-pyrrolo[3,2-d]pyrimidin-4-one]: the IC50 stood at 8.8 nM.

On to `CCCOc1ccc(S(=O)(=O)N2CCN(CCOC(=O)c3ccccc3)CC2)cc1-c1nc2c(CCC)cn(CC)c2c(=O)[nH]1` [Example 16, 2-{5-[4-(2-Benzoyloxyethyl)piperazin-1-ylsulfonyl]-2-n-propoxyphenyl}-5-ethyl-7-n-propyl-3,5-dihydro-4H-pyrrolo[3,2-d]pyrimidin-4-one], for which the IC50 is 14.4 nM.

Consider `CCCOc1ccc(S(=O)(=O)N2CCN(CCOC(=O)OCC)CC2)cc1-c1nc2c(CCC)cn(CC)c2c(=O)[nH]1` [Example 17, 2-{5-[4-(2-Ethoxycarbonyloxyethyl)piperazin-1-ylsulfonyl]-2-n-propoxyphenyl}-5-ethyl-7-n-propyl-3,5-dihydro-4H-pyrrolo[3,2-d]pyrimidin-4-one], for which the IC50 amounted to 7.65 nM.

Turning to `CCCOc1ccc(S(=O)(=O)N2CCN(CCOC(C)=O)CC2)cc1-c1nc2c(CCCF)cn(CC)c2c(=O)[nH]1` [Example 19, 2-{5-[4-(2-Acetoxyethyl)piperazin-1-ylsulfonyl]-2-n-propoxyphenyl}-5-ethyl-7-(3-fluoropropyl)-3,5-dihydro-4H-pyrrolo[3,2-d]pyrimidin-4-one], the concentration for half-maximal inhibition (IC50) turned out to be 1.48 nM.
